{
  "source": "paper PMC5823406",
  "about": "“Vehicle development, pharmacokinetics and toxicity of the anti-invasive agent 4-fluoro-3’,4’,5’-trimethoxychalcone in rodents” (PLoS ONE, 2018)",
  "key": {"[1]": {"experiment": "Whole blood stability", "assay_type": "in vitro ADME, rat", "details": "for half-life at 1 μM: male, Sprague-Dawley, rat", "protocol": "C16 (1 μM) or vehicle (DMSO) were incubated with fresh rat blood (Sprague Dawley, male) at 37°C at 5 time points in duplicate over a 120-min period. The final DMSO concentration in the incubation was 0.25%. Reactions were terminated following 0, 15, 30, 60 and 120 min by acetonitrile containing internal standard. The sampling plate was centrifuged (3000 rpm, 45 min, 4 °C) and the supernatants from each time point analyzed for parent compound by HPLC-MS/MS. The percentage of parent compound remaining at each time point relative to the 0-min sample was then calculated from HPLC-MS/MS peak area ratios (compound peak area/internal standard peak area).\nC. Stability and metabolism\nFor details on ADME experiments not included underneath , please consult ref. [1].\nC.A. Whole blood stability\nColumn: Kinetex XB-C18 column, 2.6 µm (150 x2.1 mm)\nMobile phase A: H2O + 0.1% v/v Formic Acid\nMobile phase B: MeCN + 0.1% v/v Formic Acid\nAutosampler syringe volume: 100 µL\nWeak wash: MeOH:H2O 1:9 v/v\nStrong wash: MeOH:H2O 95:5 v/v\nTable K. Gradient program.\nMass spectrometric conditions\nModel: AB Sciex API5500 QTrap\nMode: Multiple ion monitoring (MIM)\nTable L. MIM (parent to parent transitions).\nThe areas and percentages for the parent and metabolites have been calculated using MIM data where parent to parent transitions have been used, and assume that each metabolite has the same point of ionisation and the sensitivity of the metabolite has not been affected by the biotransformation."}, "[2]": {"experiment": "Protein binding and recovery", "assay_type": "in vitro ADME", "details": "Human plasma"}, "[3]": {"system": "SK-OV-3", "design": "method as in PMID 26204510", "details": "read-out: IC50 in Matrigel invasion assay (SK-OV-3); cited from earlier work"}, "[4]": {"experiment": "High-dose PK, single PO 300 mg/kg via oral gavage", "assay_type": "in vivo", "details": "single 300 mg/kg oral gavage; for Individual whole blood concentration: animals 4-1 to 4-3", "protocol": "On the morning of day 7, the water group received a single PO administration of 300 mg/kg C16 (10 mL/kg) for high-dose PK evaluation, using a 30 mg/mL solution of C16 in 10% Solutol HS-15 / 90% PEG 600 (prepared as described above). To that extent, blood was collected via the tail vein at the 30 and 60 min time point, and via cardiac exsanguination after 180 min (protocol as for other cohorts). Samples for hematological and biochemical analysis were also prepared. Afterward, animals were sacrificed by cervical dislocation.\nBlood samples (25 μL) were collected via the tail vein or cardiac puncture (last time point). Blood was pipetted into a tube with 25 μL heparinized water (1 μL of sodium heparin (1000 units/mL) + 24 μL water) within 30 seconds of collection. The sample was pipetted up and down five times, immediately frozen on dry ice, and stored at -60°C to -80°C until analysis.\nE.C. Whole blood C16 levels […]\nBLOQ: below the limit of quantitation (0.5 ng/mL). Samples that were below the limit of quantification were not used in the calculation of\nTable BB. […]"}, "[5]": {"target": "CYP 2D6 (Homo sapiens, UniProt P10635)", "sequence (P10635 whole entry)": "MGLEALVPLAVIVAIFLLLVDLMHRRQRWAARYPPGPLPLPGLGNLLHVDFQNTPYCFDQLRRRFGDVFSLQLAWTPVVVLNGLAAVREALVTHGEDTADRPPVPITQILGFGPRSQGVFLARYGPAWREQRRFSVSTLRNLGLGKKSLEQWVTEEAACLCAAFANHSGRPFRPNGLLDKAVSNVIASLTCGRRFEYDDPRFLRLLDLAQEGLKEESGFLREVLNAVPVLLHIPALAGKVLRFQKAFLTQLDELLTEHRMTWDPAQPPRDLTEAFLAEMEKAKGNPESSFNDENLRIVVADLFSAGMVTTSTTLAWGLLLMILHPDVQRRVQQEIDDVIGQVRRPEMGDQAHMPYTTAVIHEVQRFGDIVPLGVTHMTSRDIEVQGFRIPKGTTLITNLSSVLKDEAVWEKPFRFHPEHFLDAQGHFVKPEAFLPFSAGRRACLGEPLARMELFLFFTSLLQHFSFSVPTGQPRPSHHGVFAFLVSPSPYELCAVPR", "experiment": "CYP inhibition 2D6 (MFC substrate)", "assay_type": "in vitro ADME", "details": "10 μM", "from_the_text": "(§1) Table 3 In vitro physicochemical, stability and metabolism data. | column: Value"}, "[6]": {"system": "Caco-2", "experiment": "Caco-2 permeability and recovery", "assay_type": "in vitro ADME", "details": "Caco-2, pH 7.4/7.4; 10 μM", "from_the_text": "as §1"}, "[7]": {"target": "T1, CYP 1A2 (Homo sapiens, UniProt P05177)", "T1 sequence (P05177 1-516)": "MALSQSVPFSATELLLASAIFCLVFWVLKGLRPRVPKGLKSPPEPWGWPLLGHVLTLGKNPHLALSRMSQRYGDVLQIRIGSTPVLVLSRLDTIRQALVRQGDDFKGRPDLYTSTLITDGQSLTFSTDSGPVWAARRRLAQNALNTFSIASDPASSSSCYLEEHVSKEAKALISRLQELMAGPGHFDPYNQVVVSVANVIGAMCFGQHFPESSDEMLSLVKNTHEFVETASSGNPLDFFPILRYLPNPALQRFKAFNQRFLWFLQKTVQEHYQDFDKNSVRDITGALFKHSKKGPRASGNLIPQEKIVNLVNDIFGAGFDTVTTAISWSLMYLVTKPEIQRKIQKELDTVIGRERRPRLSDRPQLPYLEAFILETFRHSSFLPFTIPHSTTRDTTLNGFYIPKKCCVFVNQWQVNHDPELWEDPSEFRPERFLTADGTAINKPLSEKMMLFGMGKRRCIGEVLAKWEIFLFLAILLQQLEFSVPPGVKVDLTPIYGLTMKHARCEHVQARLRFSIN", "experiment": "CYP inhibition 1A2 (CEC substrate)", "assay_type": "in vitro ADME", "details": "10 μM", "from_the_text": "as §1"}, "[8]": {"system": "MCF-7/6", "experiment": "Chick heart invasion assay (3D confrontation culture)", "assay_type": "cell-based", "details": "Homo sapiens, MCF7/6; read-out: projected C16 EC50 value", "from_the_text": "Our laboratories have been characterizing and validating 4-fluoro-3’,4’,5’-trimethoxychalcone or C16 as a novel invasion inhibitor for the study and potential treatment of metastatic cancer (Fig 1). C16 has nanomolar anti-invasive potency in the chick heart and Matrigel in vitro invasion models against several human cancer cell lines (MCF-7/6 breast cancer, BLM melanoma and SK-OV-3 ovarian carcinoma). […] Given its discovery in a phenotypic model, the biological target of C16 is unknown. We have differentiated the molecular mechanism of action of C16 from that of other antimetastatic agents, and are currently characterizing its biochemical interactions in detail.\nFig 1 Structure and biological activity of C16."}},
  "note": "Several values for one entry are separate records, joined by “and”; a condition that tells them apart may be missing. Equal entries are not always repeated. Where two headings read alike, the source gives them in different places.",
  "data": [
    {"compound": "COc1cc(C(=O)/C=C/c2ccc(F)cc2)cc(OC)c1OC", "note": "[C16, 4-fluoro-3’,4’,5’-trimethoxychalcone]", "values": [
      {"measurement": "remaining at 15 min, 1 µM", "setting": "[1]; fresh whole blood, male Sprague-Dawley rat blood, 15 min, read-out: Compound remaining (% of 0 min)", "result": 16.5, "unit": "%"},
      {"measurement": "remaining at 30 min, 1 µM", "setting": "[1]; fresh whole blood, male Sprague-Dawley rat blood, 30 min, read-out: Compound remaining (% of 0 min)", "result": 13.8, "unit": "%"},
      {"measurement": "remaining at 60 min, 1 µM", "setting": "[1]; fresh whole blood, male Sprague-Dawley rat blood, 60 min, read-out: Compound remaining (% of 0 min)", "result": 10.6, "unit": "%"},
      {"measurement": "remaining at 120 min, 1 µM", "setting": "[1]; fresh whole blood, male Sprague-Dawley rat blood, 120 min, read-out: Compound remaining (% of 0 min)", "result": 7, "unit": "%"},
      {"measurement": "Intrinsic clearance", "setting": "[1]; male Sprague-Dawley rat blood, Both Isomers integrated", "result": 120, "unit": "µL/min/mL blood"},
      {"measurement": "half-life at 1 μM", "setting": "[1]; fresh whole blood, blood (rat, Sprague-Dawley), 1 μM, read-out: Half-life", "result": 6, "unit": "min"},
      {"measurement": "half-life at 1 μM", "setting": "[1]; fresh whole blood, male Sprague-Dawley rat blood, Both Isomers integrated, read-out: t1/2", "result": 5.76, "unit": "min"},
      {"measurement": "half-life at 1 μM", "setting": "[1]; fresh whole blood, male Sprague-Dawley rat blood, E-isomer only, read-out: t1/2", "result": 8.06, "unit": "min"},
      {"measurement": "fraction unbound at 100 μM", "setting": "[2]", "result": 0.01},
      {"measurement": "recovery at 100 μM", "setting": "[2]", "result": 90, "unit": "%"},
      {"measurement": "IC50", "setting": "[3]", "result": "< 0.1", "unit": "µM"},
      {"measurement": "concentration at 0.5 h", "setting": "[4]; male, CD-1, mouse, whole blood, po, 0.5 h, Average±SD", "result": "0.0323 ± 0.0242", "unit": "µg/mL"},
      {"measurement": "concentration at 1 h", "setting": "[4]; male, CD-1, mouse, whole blood, po, 1 h, Average±SD", "result": "0.0283 ± 0.0121", "unit": "µg/mL"},
      {"measurement": "concentration at 3 h", "setting": "[4]; male, CD-1, mouse, whole blood, po, 3 h, Average±SD, read-out: Whole blood concentration", "result": "0.0151 ± 0.0029", "unit": "µg/mL"},
      {"measurement": "Individual whole blood concentration", "setting": "[4]; mouse, 0.5 h", "result": "19.3 ng/mL and 60.2 ng/mL and 17.5 ng/mL"},
      {"measurement": "Individual whole blood concentration", "setting": "[4]; mouse, 1 h", "result": "28.5 ng/mL and 40.3 ng/mL and 16.2 ng/mL"},
      {"measurement": "Individual whole blood concentration", "setting": "[4]; mouse, 3 h", "result": "13.9 ng/mL and 13.1 ng/mL"},
      {"measurement": "concentration at 3 h", "setting": "[4]; mouse, whole blood, po, 3 h, animals 4-1 to 4-3, read-out: Individual whole blood concentration", "result": 0.0184, "unit": "µg/mL"},
      {"measurement": "CYP inhibition 2D6 (MFC substrate)", "setting": "[5]", "result": "-19 % inhibition of control"},
      {"measurement": "Permeability A-B", "setting": "[6]", "result": "10.4 10^−6 cm/s"},
      {"measurement": "Permeability A-B: recovery", "setting": "[6]", "result": 17, "unit": "%"},
      {"measurement": "Permeability B-A", "setting": "[6]", "result": "4.9 10^−6 cm/s"},
      {"measurement": "Permeability B-A: recovery", "setting": "[6]", "result": 66, "unit": "%"},
      {"measurement": "CYP inhibition 1A2 (CEC substrate)", "setting": "[7]", "result": "36 % inhibition of control"},
      {"measurement": "EC50", "setting": "[8]", "result": "10 nM and 0.00632 µg/mL"}
    ]}
  ]
}
